Measurements taken from US20200223839A1, “FLUORO-CONTAINING COMPOUNDS, USE AND PREPARATION THEREOF” (JIANGSU YINGKEBEITA YIYAOKEJI CO. LTD, priority 2017, published 2020).
pIC50: −log10 of the molar value.

Key:
A549 = test: Cell culture and cytotoxicity assay (CTG), A549; format: cell-based; details: Homo sapiens, A549, exposure 72 hours
Protocol: (§1) The assayed compounds each was dissolved in DMSO with a final concentration of 10 mM or 40 mM and stored at −20° C. Tumor cell lines A549 (7,000 cells/well), BT474 (12,000 cells/well), MDA-MB-468 (12,000 cells/well), and HCC1937 (6,000 cells/well) were seeded on 96-well plates. And the cells were pre-incubated at 37° C./5% CO2 for 24 hours. The cells were exposed to different concentrations of the assay compounds (from 400 μM to 782 nM, from 200 μM to 391 nM, from 100 μM to 196 nM, and from 50 μM to 98 nM) for the following time:
(§2) After incubation, 100 μL from each well was discarded and CTG base (Proega, G7571, 50 μL) was added and the mixture was agitated for 2 minutes. The mixtures were stored in a dark room for 10 minutes and the viability was analyzed with Multiskan microplate reader.

BT474 = test: Cell culture and cytotoxicity assay (CTG), BT474; format: cell-based; details: Homo sapiens, BT-474, BT474, exposure 96 hours
Protocol: as §1, §2

MDA-MB-468 = test: Cell culture and cytotoxicity assay (CTG), MDA-MB-468; format: cell-based, human; details: Homo sapiens; MDA-MB-468, exposure 72 hours, CTG
Protocol: as §1, §2

MDA-MB-468 cell line = test: Anti-tumor activity against MDA-MB-468 cell line (CCK-8 test); format: cell-based; details: Homo sapiens, MDA-MB-468, 72 h
Protocol: A cryo tube was removed from liquid nitrogen. As quickly as possible, the cells were thawed by placing the vial in a 37° C. water bath and gently shaking the vials. The cells were transferred to medium tube, which containing 5 mL medium, and were centrifuged at 1000 rpm for 6 min. The supernatant containing dead cells and cell debris was discarded. 1 mL of pre-warmed medium with 10% FBS was add and the solution was re-suspended. The plate was placed in 37° C. and 5% CO2 incubator. The medium was changed next day.
Cells in logarithmic growth stage were taken and culture medium was discarded. 1 mL 0.25% trypsin solution was added for twice. The trypsin solution was removed and the 0.5 ml 0.25% trypsin solution was added to the cell flask. The plate was placed in 37° C. and 5% CO2 incubator for a few minutes until the cells recovered. 1 mL medium was added to stop digestion. The liquid was transferred by pipette for experiment.
the cells were suspended and the medium was discarded. 1 mL 0.25% trypsin solution was added for twice and the trypsin digestion was centrifuged. The cells were suspended with the culture medium, count and adjusted to the appropriate concentration.
The cell suspension was added to the 96-well plate with a volume of 100 uL per well, as shown in Tab. 5, and was placed in 37° C., 5% CO2 incubator overnight.
Preparation of Compounds Working Solution.
The test compounds were dissolved in DMSO at 10 mM with sterile filter (0.22 um, nelon, JET). After filtering, the solution were continuously diluted by three times with DMSO. A total of six concentration were prepared, as shown below.
6 uL compound solution was added to 594 uL medium and the solution was added to 96-well plate as shown and cultured for 72 h in CO2 incubator.
A CCK-8 solution was prepared according to the instructions and the 96-well plate was taken out and the original medium discarded. 100 uL cck-8 solution was added to each well in the 96-well plate. Photoabsorption data were read by TECAN enzyme marker after a period of time.
IC (%)=[Ac-As]/[Ac-Ab]*100% • As: Experimental well (containing culture medium, cell, CCK-8 and compound); • Ac: Controlled well (containing culture medium, cell and CCK-8); • Ab: Blank well (Only containing medium and CCK-8).

[1] = tested on: MDA-MB-468 cells (human breast cancer) implanted in BALB/c-nu mice; test: In vivo xenograft study, MDA-MB-468, tumor sizes; details: MDA-MB-468 xenograft in BALB/c-nu mice, FIGS. 2 and 4
Protocol: (§3) MDA-MB-468 cells (human breast cancer) in its log growth phase were implanted in BALB/c-nu mice. When the tumor volume was approximately 50-150 mm^3, the mice were randomized into four groups, each include 8 mice. The four groups were treated with vehicle, Ref. 1, 4f, and Ref. 2, respectively, and the tumor sizes were measured two to three times each week and the mice were also weighted.

[2] = In vivo xenograft study, MDA-MB-468, mice weights; details: MDA-MB-468 xenograft in BALB/c-nu mice, FIGS. 3 and 5
Protocol: as §3

HCC1937 = test: Cell culture and cytotoxicity assay (CTG), HCC1937; format: cell-based; details: Homo sapiens, HCC1937, exposure 72 hours
Protocol: as §1, §2

[3] = In vivo mouse model, MDA-MB-453, mice weights; details: MDA-MB-453 mouse model, FIG. 7, dose of this group not given
Excerpt: MDA-MB-453 cells (human breast cancer) were also studied in a mouse model. […] FIG. 7.

[4] = In vivo mouse model, Hep3B, mice weights; details: FIG. 9, dose of this group not given
Excerpt: Hep3B cells (human liver cancer) were also studied in a mouse model. […] FIG. 9.

Compound `Cc1ccc(S(=O)(=O)Nc2nc3ccccc3nc2Nc2ccc3nsnc3c2)cc1` [Ref. 1, reference compound] has an IC50 (A549) greater than 50000 nM, an IC50 (BT474) of 28200 nM and an IC50 (MDA-MB-468) of 2060 nM. The pIC50 (MDA-MB-468 cell line) was 5.57, the “anticancer activity (tumor sizes) versus vehicle” value [1] was “no significant difference” and the “weight changes of mice” value [2] was “no significant weight changes”.

Work on `COc1ccc(Cl)c(Nc2nc3ccccc3nc2NS(=O)(=O)c2cccc(NC(=O)C(C)(C)N)c2)c1` [Ref. 2, reference compound] yielded an IC50 (A549) of 25000 to 50000 nM, an IC50 (BT474) of 25000 to 50000 nM and an IC50 (MDA-MB-468) of 12500 to 25000 nM. For the same compound, the IC50 (HCC1937) was 50000 to 100000 nM, the pIC50 (MDA-MB-468 cell line) was 5.31 and the “anticancer activity (tumor sizes) versus vehicle” value [1] was “no significant difference”. The “weight changes of mice” value [2] was “no significant weight changes”, the weight changes [3] was “no difference in weight changes” and the weight changes [4] was “no difference in weight changes”.

Compound `O=S(=O)(Nc1nc2ccccc2nc1Nc1ccc2nsnc2c1)c1ccc(Br)c(F)c1` [Compound 8] has a pIC50 (MDA-MB-468 cell line) of 6.09.

Work on `Cc1ccc(S(=O)(=O)Nc2nc3ccccc3nc2Nc2ccc3nsnc3c2)c(F)c1` [Compound 4, N-[3-(benzo[1,2,5]thiadiazol-5-ylamino)-quinoxalin-2-yl]-2-fluoro-4-methyl-benzenesulfonamide] yielded an IC50 (BT474) greater than 50000 nM, an IC50 (MDA-MB-468) of 4250 nM and an IC50 (HCC1937) of 114000 nM.

`O=S(=O)(Nc1nc2ccccc2nc1Nc1ccc2nsnc2c1)c1ccc(F)c(F)c1` [Compound 7] gave a pIC50 (MDA-MB-468 cell line) of 6.33.

Compound `CCNc1ccc(S(=O)(=O)Nc2nc3ccccc3nc2Nc2ccc3nsnc3c2)cc1F` [Compound 10] has a pIC50 (MDA-MB-468 cell line) of 5.15.

`COc1ccc(S(=O)(=O)Nc2nc3ccccc3nc2Nc2ccc3nsnc3c2)cc1F` [Compound 9] showed a pIC50 (MDA-MB-468 cell line) of 5.86.
